Test results from patent US20250345299A1, “COMBINATION AND COMPOSITION COMPRISING NICOTINIC ACID OR DERIVATIVE THEREOF AND FATTY ACID OR DERIVATIVE THEREOF” (T OMEGA AS, priority 2022, published 2025).

How the values were obtained:
Type in all cases: in vivo, male Wistar rats, Rattus norvegicus
[1] = Analysis of plasma compounds in rats fed high-fat diet supplemented with TTA, NR, NAR or combinations; design: Quinolinic acid / Nicotinamide / N1-Methylnicotinamide / Pyridoxal 5′-phosphate / Pyridoxal / Thiamine monophosphate: unit not given here; details: high-fat diet + supplement, 12 weeks
Experimental: This example illustrates an animal study using male Wistar rats which were fed NR, NAR, TTA and combinations thereof.
(§1) The animal study was conducted according to the Guidelines for the Care and Use of Experimental Animals, and in accordance with the Norwegian legislation and regulations governing experiments using live animals. All efforts were made to optimize the animal environment and minimize suffering. Eight weeks-old old male Wistar rats, Rattus norvegicus, weighing 400-450 g, were purchased from Taconic (Ejby, Denmark). Upon arrival the rats were randomized using Research Randomizer, labeled and placed in open cages, two in each cage, where they were allowed to acclimatize to their surroundings for one week. During the acclimatization and experiment period, the rats had unrestricted access to tap water, but restricted access to chow to obtain a constant dose through the experiment.
(§2) The rats were kept in a 12 hours light/dark cycle at a constant temperature (22±2° C.) and a relative humidity of 55% (±5%). Upon start of the experiment, the rats were block randomized to their respective interventions. All rats were divided into seven groups. The first group of animals (control group) was fed a high-fat diet (HF) with 25% by weight fat, consisting of 23% by weight lard and 2% by weight soybean oil, referred to as “HF”. The second group was fed a high-fat diet (HF) supplemented with tetradecylthioacetic acid (TTA) (250 mg/day/kg body weight), referred to as “HF+TTA”. The third group was fed a high-fat diet (HF) supplemented with nicotineamide riboside (NR) (100 mg/day/kg body weight), referred to as “HF+NR”. The fourth group was fed a high-fat diet (HF) supplemented with nicotinic acid riboside (NAR) (40 mg/day/kg body weight), referred to as “HF+NAR”. The fifth group was fed a high-fat diet (HF) supplemented with both tetradecylthioacetic acid (TTA) (250 mg/day/kg body weight) and nicotineamide riboside (NR) (100 mg/day/kg body weight), referred to as “HF+TTA+NR”. The sixth group was fed a high-fed diet (HF) supplemented with both tetradecylthioacetic acid (TTA) (250 mg/day/kg body weight) and nicotinic acid riboside (NAR) (40 mg/day/kg body weight), referred to as “HF+TTA+NAR”. The seventh group was fed a low-fed diet, referred to as “LF”.
(§3) All animals were weighed daily and feed intake was determined weekly. The animal experiment was run for 12 weeks. At sacrifice, rats were anaesthetized by inhalation of 2-5% isoflurane (Schering-Plough, Kent, UK), the abdomen opened along the midline, and exsanguination was performed using cardiac puncture. EDTA-blood was collected and immediately chilled on ice. The samples were centrifuged and plasma was stored at −80° C. prior to analysis. Different tissues were collected, weighed and were immediately snap-frozen in liquid nitrogen and stored at −80° C. until further analysis.

[2] = Plasma lipids and total fatty acids in rats fed supplemented high-fat diet; details: high-fat diet + supplement, 12 weeks
Experimental: as §1, with “Eight weeks-old old male Wistar rats, Rattus norvegicus, weighing 400-450 g, were purchased from Taconic (Ejby, Denmark).” left out
as §2, §3

[3] = Body and adipose tissue weights in rats fed supplemented high-fat diet
Experimental: as §1, with “Eight weeks-old old male Wistar rats, Rattus norvegicus, weighing 400-450 g, were purchased from Taconic (Ejby, Denmark).” left out
as §2, §3

[4] = Liver lipids in rats fed supplemented high-fat diet; details: high-fat diet + supplement, 12 weeks
Experimental: as §1, with “Eight weeks-old old male Wistar rats, Rattus norvegicus, weighing 400-450 g, were purchased from Taconic (Ejby, Denmark).” left out
The rats were kept in a 12 hours light/dark cycle at a constant temperature (22±2° C.) and a relative humidity of 55% (±5%). Upon start of the experiment, the rats were block randomized to their respective interventions. All rats were divided into seven groups. The first group of animals (control group) was fed a high-fat diet (HF) with 25% by weight fat, consisting of 23% by weight lard and 2% by weight soybean oil, referred to as “HF”. The second group was fed a high-fat diet (HF) supplemented with tetradecylthioacetic acid (TTA) (250 mg/day/kg body weight), referred to as “HF+TTA”. […]
All animals were weighed daily and feed intake was determined weekly. […]

[5] = high-fat diet + supplement, 12 weeks

O=C([O-])c1ccc[n+]([C@@H]2O[C@H](CO)[C@@H](O)[C@H]2O)c1 [HF + NAR, nicotinic acid riboside]
2-Aminoadipic acid [1]: 1.34 µM
3-Hydroxyanthranilic acid [1]: 7.8 µM
Folic acid [1]: 0.70 µM
Methylmalonic acid [1]: 2.35 µM
N1-Methylnicotinamide [1]: 2414
Nicotinamide [1]: 4308
Nicotinic acid [1]: 11.95 µM
Pyridoxal [1]: 384.1
Pyridoxal 5′-phosphate [1]: 598.3
Serine [1]: 325 µM
Thiamine monophosphate [1]: 350.0
Trigonelline [1]: 0.084 µM

nicotineamide riboside [HF + NR]
HDL/LDL ratio [2]: 2.117
Plasma lipids: Cholesterol [2]: 2.000 mmol/L
Plasma lipids: High density lipoprotein [2]: 0.938 mmol/L
Plasma lipids: Low density lipoprotein [2]: 0.450 mmol/L
Plasma lipids: Triglycerides [2]: 2.194 mmol/L
Total fatty acids, plasma [2]: 3049 µg/mL
Brown adipose tissue weight [3, 5]: 0.308 g
White adipose tissue weight [3, 5]: 34.52 g
Body weight end ([3]; high-fat diet + supplement, end of 12 weeks): 555.60 g
Body weight start ([3]; start of experiment (baseline)): 409.60 g
Liver lipids: Cholesterol [4]: 39.84 µmol/g
Liver lipids: Triglycerides [4]: 75.22 µmol/g
2-Aminoadipic acid [1]: 1.33 µM
3-Hydroxyanthranilic acid [1]: 5.4 µM
3-Hydroxybutyrate [1]: 287 µM
Acetoacetate [1]: 72.9 µM
Glycine [1]: 221 µM
Methylmalonic acid [1]: 3.37 µM
N1-Methylnicotinamide [1]: 3616
Nicotinamide [1]: 5870
Nicotinic acid [1]: 12.38 µM
Pyridoxal [1]: 369.8
Pyridoxal 5′-phosphate [1]: 729.0
Quinolinic acid [1]: 533
